Experimental data from ChEMBL document CHEMBL4808251, “Preparation, biological & cheminformatics-based assessment of N2,N4-diphenylpyrimidine-2,4-diamine as potential Kinase-targeted antimalarials” (Bioorg Med Chem, 2021).
Converted amounts (≈) assume the structure as drawn.

Columns and labels:
Plasmodium falciparum = assay: Antimalarial activity against chloroquine-sensitive plasmodium falciparum 3D7 infected in human erythrocytes assessed as parasite growth inhibition measured after 72 hrs by SYBR green dye based fluorescence analysis; format: functional, organism-based; details: 3D7, Erythrocyte
[1] = Cytotoxicity against human HepG2 cells assessed as inhibition of cell viability relative to control; format: cell-based; details: read-out: INH
HepG2 = assay: Cytotoxicity against human HepG2 cells assessed as inhibition of cell growth measured after 72 hrs by resazurin dye based fluorescence assay; details: HepG2, 72 h
[2] = Selectivity index, ratio of IC50 for cytotoxicity against human HepG2 cells to IC50 for antimalarial activity against chloroquine-sensitive plasmodium falciparum 3D7 infected in human erythrocytes; format: toxicity, cell-based; details: read-out: Ratio IC50
[3] = 1-octanol/water partition coefficient, logD of the compound at pH 7.4 measured after 6 hrs by shake flask technique based HPLC-UV analysis; format: physicochemical
Aurora kinase A = target: T1, Aurora kinase A (Homo sapiens, UniProt O14965); assay: Inhibition of human Aurora A at 1 uM measured after 30 mins by [gamma-33P]-ATP assay
T1 sequence (O14965 whole entry): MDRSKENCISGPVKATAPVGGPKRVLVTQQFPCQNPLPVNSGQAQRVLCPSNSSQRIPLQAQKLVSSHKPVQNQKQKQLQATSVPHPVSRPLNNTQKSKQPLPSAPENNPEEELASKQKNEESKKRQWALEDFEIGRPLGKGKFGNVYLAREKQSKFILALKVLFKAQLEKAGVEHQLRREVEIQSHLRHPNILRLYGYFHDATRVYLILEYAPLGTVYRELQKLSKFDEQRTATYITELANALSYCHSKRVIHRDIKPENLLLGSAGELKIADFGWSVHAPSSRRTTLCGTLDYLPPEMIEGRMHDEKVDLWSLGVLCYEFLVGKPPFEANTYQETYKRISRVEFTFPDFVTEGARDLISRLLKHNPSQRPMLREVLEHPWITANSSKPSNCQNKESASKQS

[4] = target: HER4 (Receptor tyrosine-protein kinase erbB-4) (Homo sapiens, UniProt Q15303); assay: Inhibition of human HER4 at 1 uM measured after 30 mins by [gamma-33P]-ATP assay
[5] = target: VEGFR1 (Vascular endothelial growth factor receptor 1) (Homo sapiens, UniProt P17948); assay: Inhibition of human VEGFR1 at 1 uM measured after 30 mins by [gamma-33P]-ATP assay; details: human VEGFR1 kinase
[6] = Intrinsic clearance in human liver microsomes at 0.5 uM in the presence of NADPH measured upto 30 mins by UPLC-MS/MS analysis; format: ADME, Microsome; details: 0.5 h
[7] = Aqueous solubility of compound in PBS at pH 7.4 by HPLC-UV analysis; format: physicochemical
[8] = target: T2, JAK3 (Tyrosine-protein kinase JAK3) (Homo sapiens, UniProt P52333); assay: Inhibition of human JAK3 at 1 uM measured after 30 mins by [gamma-33P]-ATP assay
T2 sequence (P52333 whole entry): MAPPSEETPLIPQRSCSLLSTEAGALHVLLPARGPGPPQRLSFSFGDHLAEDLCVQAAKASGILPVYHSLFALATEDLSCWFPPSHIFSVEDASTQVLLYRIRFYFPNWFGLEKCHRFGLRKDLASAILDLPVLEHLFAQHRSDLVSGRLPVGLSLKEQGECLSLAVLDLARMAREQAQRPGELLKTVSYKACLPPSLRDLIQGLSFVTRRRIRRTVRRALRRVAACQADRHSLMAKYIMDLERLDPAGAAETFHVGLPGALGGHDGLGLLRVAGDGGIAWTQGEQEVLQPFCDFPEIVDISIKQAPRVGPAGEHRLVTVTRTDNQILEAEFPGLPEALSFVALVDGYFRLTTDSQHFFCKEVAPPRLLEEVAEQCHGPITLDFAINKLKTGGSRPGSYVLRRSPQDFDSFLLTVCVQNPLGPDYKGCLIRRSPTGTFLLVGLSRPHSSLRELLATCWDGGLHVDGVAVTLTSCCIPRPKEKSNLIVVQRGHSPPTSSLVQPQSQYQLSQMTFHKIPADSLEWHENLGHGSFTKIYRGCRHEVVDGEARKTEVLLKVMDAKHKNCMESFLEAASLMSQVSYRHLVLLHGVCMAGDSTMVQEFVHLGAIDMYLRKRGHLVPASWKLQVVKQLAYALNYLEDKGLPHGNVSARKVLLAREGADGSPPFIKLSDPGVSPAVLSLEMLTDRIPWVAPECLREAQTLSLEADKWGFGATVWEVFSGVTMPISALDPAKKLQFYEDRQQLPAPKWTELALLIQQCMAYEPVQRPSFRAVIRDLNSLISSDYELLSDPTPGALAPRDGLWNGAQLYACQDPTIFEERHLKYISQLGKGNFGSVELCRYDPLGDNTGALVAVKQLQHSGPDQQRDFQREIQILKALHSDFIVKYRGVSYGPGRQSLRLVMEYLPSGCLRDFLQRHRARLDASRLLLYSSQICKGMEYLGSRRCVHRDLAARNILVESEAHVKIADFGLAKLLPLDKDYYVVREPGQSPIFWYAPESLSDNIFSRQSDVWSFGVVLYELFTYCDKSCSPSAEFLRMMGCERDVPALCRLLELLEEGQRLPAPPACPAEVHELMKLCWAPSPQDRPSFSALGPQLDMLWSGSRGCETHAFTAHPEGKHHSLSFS

[9] = target: JNK1 (Mitogen-activated protein kinase 8) (Homo sapiens, UniProt P45983); assay: Inhibition of human JNK1 at 1 uM measured after 30 mins by [gamma-33P]-ATP assay
[10] = Effective permeability of the compound in PBS at pH 7.4 at 10 uM incubated for 5 hrs by PAMPA based UPLC-MS/MS analysis; format: ADME; details: read-out: permeability
[11] = target: PIM1 (Serine/threonine-protein kinase pim-1) (Homo sapiens, UniProt P11309); assay: Inhibition of human PIM1 at 1 uM measured after 30 mins by [gamma-33P]-ATP assay
[12] = target: CDK2 (Cyclin-dependent kinase 2) (Homo sapiens, UniProt P24941); assay: Inhibition of human CDK2 at 1 uM measured after 30 mins by [gamma-33P]-ATP assay
[13] = target: MEKK1 (Mitogen-activated protein kinase kinase kinase 1) (Homo sapiens, UniProt Q13233); assay: Inhibition of human MEKK1 at 1 uM measured after 30 mins by [gamma-33P]-ATP assay
[14] = target: ERK1 (Mitogen-activated protein kinase 3) (Homo sapiens, UniProt P27361); assay: Inhibition of human ERK1 at 1 uM measured after 30 mins by [gamma-33P]-ATP assay

Chain of VEGFR1 (Vascular endothelial growth factor receptor 1) (P17948 whole entry): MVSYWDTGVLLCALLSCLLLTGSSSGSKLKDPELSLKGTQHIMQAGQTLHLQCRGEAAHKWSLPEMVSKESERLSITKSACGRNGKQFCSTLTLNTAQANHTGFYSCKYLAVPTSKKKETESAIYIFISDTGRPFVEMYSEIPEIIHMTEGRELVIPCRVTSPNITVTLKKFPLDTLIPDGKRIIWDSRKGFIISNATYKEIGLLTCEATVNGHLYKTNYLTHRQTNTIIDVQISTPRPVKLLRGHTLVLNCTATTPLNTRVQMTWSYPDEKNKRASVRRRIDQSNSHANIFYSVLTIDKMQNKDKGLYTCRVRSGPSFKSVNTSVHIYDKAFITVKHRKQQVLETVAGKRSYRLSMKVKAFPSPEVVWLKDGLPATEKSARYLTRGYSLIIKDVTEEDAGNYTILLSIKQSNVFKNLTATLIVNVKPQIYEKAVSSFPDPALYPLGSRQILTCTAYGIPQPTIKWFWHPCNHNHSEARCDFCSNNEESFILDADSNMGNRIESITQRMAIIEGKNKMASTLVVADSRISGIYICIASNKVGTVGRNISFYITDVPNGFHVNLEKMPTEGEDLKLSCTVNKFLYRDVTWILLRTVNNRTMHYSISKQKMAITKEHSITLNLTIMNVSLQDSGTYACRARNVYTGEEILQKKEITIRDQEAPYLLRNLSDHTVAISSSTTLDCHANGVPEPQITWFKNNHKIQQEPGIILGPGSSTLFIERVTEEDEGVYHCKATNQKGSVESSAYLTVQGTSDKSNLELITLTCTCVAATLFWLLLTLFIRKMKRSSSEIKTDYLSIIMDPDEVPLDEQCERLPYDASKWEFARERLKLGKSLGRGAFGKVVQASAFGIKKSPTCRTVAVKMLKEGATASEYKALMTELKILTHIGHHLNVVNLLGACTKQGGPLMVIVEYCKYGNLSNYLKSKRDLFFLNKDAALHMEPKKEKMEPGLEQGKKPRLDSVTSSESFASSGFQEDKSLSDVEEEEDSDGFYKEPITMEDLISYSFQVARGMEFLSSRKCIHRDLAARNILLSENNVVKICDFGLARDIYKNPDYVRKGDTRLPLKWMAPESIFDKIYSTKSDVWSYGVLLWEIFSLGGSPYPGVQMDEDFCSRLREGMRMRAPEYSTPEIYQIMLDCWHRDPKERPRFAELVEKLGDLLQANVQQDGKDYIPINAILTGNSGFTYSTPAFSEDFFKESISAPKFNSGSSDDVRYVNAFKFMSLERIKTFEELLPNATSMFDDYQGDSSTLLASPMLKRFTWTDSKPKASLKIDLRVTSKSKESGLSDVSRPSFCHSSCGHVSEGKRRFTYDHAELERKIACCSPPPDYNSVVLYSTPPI
Chain of PIM1 (Serine/threonine-protein kinase pim-1) (P11309 whole entry): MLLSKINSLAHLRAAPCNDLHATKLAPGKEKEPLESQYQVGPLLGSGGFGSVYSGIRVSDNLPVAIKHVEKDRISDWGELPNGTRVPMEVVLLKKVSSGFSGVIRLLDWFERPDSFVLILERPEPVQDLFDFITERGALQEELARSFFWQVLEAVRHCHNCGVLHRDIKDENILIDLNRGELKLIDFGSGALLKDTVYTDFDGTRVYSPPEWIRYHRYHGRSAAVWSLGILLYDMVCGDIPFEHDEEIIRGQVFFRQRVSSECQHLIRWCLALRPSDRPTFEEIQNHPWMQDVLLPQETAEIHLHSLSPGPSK
Chain of MEKK1 (Mitogen-activated protein kinase kinase kinase 1) (Q13233 whole entry): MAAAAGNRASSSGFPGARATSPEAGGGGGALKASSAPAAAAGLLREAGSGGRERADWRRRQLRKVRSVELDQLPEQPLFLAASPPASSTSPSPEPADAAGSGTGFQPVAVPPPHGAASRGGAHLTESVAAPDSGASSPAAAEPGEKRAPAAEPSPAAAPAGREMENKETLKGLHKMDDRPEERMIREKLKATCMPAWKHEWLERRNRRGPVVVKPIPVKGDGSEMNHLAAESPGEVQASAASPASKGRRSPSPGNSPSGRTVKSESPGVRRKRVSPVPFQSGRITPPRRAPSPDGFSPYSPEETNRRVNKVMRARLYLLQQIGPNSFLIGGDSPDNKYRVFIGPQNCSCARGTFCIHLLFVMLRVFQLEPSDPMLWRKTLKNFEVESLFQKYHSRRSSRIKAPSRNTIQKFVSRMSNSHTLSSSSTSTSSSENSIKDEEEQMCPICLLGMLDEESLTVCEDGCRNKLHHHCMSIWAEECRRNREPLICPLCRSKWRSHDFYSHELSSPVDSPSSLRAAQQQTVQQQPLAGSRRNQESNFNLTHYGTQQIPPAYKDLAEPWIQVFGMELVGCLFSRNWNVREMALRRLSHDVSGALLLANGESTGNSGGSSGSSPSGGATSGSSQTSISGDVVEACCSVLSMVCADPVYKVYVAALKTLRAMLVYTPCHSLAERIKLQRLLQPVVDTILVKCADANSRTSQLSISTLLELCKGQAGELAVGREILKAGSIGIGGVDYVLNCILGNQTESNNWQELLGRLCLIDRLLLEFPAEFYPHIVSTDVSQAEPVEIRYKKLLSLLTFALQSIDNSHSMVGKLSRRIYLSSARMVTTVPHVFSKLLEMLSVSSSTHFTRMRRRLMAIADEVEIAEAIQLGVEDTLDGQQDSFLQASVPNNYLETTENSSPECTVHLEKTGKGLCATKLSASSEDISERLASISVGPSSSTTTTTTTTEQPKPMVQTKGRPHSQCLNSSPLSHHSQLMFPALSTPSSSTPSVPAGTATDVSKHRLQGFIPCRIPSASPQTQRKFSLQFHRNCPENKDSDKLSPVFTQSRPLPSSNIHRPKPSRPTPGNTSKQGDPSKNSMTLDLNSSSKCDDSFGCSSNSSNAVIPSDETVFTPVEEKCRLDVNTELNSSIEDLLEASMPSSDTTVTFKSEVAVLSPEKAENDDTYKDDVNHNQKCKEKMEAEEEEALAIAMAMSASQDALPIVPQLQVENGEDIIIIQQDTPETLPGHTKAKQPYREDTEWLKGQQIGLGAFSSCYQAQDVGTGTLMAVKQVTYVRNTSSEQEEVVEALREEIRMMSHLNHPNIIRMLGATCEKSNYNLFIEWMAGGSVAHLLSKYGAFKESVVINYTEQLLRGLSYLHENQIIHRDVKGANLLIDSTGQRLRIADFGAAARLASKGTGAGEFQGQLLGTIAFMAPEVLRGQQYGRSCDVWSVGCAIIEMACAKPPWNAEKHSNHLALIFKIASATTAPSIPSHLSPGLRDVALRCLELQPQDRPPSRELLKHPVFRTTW
Chain of JNK1 (Mitogen-activated protein kinase 8) (P45983 whole entry): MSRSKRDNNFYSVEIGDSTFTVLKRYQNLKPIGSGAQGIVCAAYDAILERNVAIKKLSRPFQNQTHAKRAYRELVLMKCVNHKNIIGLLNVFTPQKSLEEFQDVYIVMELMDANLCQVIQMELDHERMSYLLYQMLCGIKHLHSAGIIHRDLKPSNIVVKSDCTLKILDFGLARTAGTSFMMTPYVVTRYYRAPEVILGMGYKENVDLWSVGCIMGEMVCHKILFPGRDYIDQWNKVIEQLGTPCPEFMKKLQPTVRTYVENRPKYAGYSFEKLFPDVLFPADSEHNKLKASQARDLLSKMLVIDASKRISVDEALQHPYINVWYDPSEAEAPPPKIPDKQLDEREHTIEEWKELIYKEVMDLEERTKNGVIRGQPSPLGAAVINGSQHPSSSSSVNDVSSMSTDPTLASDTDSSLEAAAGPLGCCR
Chain of HER4 (Receptor tyrosine-protein kinase erbB-4) (Q15303 whole entry): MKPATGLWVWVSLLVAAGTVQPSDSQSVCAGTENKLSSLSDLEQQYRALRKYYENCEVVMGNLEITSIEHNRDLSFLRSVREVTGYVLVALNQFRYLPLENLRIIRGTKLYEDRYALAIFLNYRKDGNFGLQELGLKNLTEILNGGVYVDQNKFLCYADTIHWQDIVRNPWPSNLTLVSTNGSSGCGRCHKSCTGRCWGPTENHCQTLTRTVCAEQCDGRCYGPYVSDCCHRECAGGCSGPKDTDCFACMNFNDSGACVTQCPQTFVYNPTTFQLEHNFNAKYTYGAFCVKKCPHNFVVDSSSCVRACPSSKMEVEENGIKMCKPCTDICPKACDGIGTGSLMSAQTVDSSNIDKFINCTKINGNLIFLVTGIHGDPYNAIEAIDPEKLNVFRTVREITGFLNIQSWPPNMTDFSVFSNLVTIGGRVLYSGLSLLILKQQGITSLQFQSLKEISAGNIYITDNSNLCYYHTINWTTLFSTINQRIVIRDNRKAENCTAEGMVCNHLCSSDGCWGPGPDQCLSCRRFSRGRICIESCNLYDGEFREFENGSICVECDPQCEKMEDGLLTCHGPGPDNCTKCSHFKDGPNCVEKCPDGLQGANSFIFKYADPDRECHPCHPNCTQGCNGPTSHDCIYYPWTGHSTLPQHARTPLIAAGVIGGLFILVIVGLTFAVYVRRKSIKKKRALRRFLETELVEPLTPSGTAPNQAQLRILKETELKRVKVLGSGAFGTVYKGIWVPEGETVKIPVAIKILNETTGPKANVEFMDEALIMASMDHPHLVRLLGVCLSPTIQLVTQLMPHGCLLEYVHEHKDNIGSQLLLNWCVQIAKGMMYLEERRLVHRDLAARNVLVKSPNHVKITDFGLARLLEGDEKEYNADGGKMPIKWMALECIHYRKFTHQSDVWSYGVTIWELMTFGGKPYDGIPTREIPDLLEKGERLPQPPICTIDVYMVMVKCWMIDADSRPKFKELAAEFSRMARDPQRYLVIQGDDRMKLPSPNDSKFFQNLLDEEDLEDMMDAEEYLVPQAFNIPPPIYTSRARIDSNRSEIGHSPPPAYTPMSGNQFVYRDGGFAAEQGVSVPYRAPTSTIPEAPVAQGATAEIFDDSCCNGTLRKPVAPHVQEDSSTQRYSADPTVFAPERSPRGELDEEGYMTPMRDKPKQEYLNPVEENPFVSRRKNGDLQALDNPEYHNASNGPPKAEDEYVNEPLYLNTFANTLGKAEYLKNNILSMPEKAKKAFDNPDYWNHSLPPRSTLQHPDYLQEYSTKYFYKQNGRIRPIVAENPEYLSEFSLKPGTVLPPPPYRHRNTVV

SMILES	IC50 (Plasmodium falciparum) [µM]	IC50 (HepG2) [µM]	selectivity ratio [2]	also measured
CC(=O)c1ccc(NC(=O)Nc2ccc(N(C)c3ccnc(Nc4cccc(CS(C)(=O)=O)c4)n3)cc2)cc1	0.12	–	–	cytotoxicity [1]: 86%
Cc1c2ccc(Nc3ccnc(Nc4ccc(S(N)(=O)=O)cc4)n3)cc2nn1C	13	> 25	> 1.9	–
Cc1cnc(Nc2ccc(S(N)(=O)=O)cc2)nc1Nc1ccc2nc[nH]c2c1	3.2	18	5.6	–
c1cc(Nc2nccc(Nc3ccc4cn[nH]c4c3)n2)cc(N2CCOCC2)c1	4.2	16	3.8	–
NS(=O)(=O)c1cccc(Nc2nccc(Nc3ccc4nc[nH]c4c3)n2)c1	4.2	> 25	> 6	–
Cc1ccc(Nc2nccc(Nc3ccc4cn[nH]c4c3)n2)cc1	2.5	18	7.2	–
Cc1c2ccc(Nc3ccnc(Nc4cccc(S(N)(=O)=O)c4)n3)cc2nn1C	10	19	1.9	–
Cc1cc(Nc2nccc(Nc3ccc4nc[nH]c4c3)n2)ccc1N1CCN(C)CC1	0.42	15	36	logD at 6 h [3]: 2.9; inhibition at 0.5 h, 1 µM (Aurora kinase A): 15.7%; inhibition at 0.5 h, 1 µM [4]: 35.4%; inhibition at 0.5 h, 1 µM [5]: 2.9%; CLH [6]: 1.8 mL/min/g; solubility [7]: 16 µM (≈ 6.63 µg/mL); inhibition at 0.5 h, 1 µM [8]: 57.8%; inhibition at 0.5 h, 1 µM [9]: 63.5%; Papp at 5 h, 10 µM [10]: 0.02 ×10⁻⁶ cm/s; inhibition at 0.5 h, 1 µM [11]: 108%; inhibition at 0.5 h, 1 µM [12]: 57.3%; inhibition at 0.5 h, 1 µM [13]: 44.4%; inhibition at 0.5 h, 1 µM [14]: 71%
CN1CCN(c2cccc(Nc3nccc(Nc4ccc5nc[nH]c5c4)n3)c2)CC1	0.87	11	13	–
CN1CCN(c2cccc(Nc3nccc(Nc4ccc5cn[nH]c5c4)n3)c2)CC1	1.1	6.7	6.1	–
c1cc(Nc2nccc(Nc3ccc4nc[nH]c4c3)n2)cc(N2CCOCC2)c1	2.4	9.6	4	–
Cc1cccc(Nc2ncc(C)c(Nc3ccc4nc[nH]c4c3)n2)c1	0.77	6.6	8.6	–
c1cc(Nc2ccc3nc[nH]c3c2)nc(Nc2ccc(N3CCOCC3)cc2)n1	3.2	> 25	> 7.8	–
Cc1cccc(Nc2ncc([N+](=O)[O-])c(Nc3ccc4nc[nH]c4c3)n2)c1	0.78	22	28	logD at 6 h [3]: 3.2; inhibition at 0.5 h, 1 µM (Aurora kinase A): 15.6%; inhibition at 0.5 h, 1 µM [4]: 83.8%; inhibition at 0.5 h, 1 µM [5]: 27.9%; CLH [6]: 19 mL/min/g; solubility [7]: 1 µM (≈ 0.361 µg/mL); inhibition at 0.5 h, 1 µM [8]: 54.9%; inhibition at 0.5 h, 1 µM [9]: 91%; Papp at 5 h, 10 µM [10]: 3.8 ×10⁻⁶ cm/s; inhibition at 0.5 h, 1 µM [11]: 76.7%; inhibition at 0.5 h, 1 µM [12]: 25.3%; inhibition at 0.5 h, 1 µM [13]: 43.2%; inhibition at 0.5 h, 1 µM [14]: 69.8%
CS(=O)(=O)Nc1cccc(Nc2nccc(Nc3ccc4nc[nH]c4c3)n2)c1	2.8	> 25	> 8.9	–
c1cc(Nc2ccc3cn[nH]c3c2)nc(Nc2ccc(N3CCOCC3)cc2)n1	2.2	8	3.6	–
Cc1cccc(Nc2ncc(Cl)c(Nc3ccc4nc[nH]c4c3)n2)c1	2	7.4	3.7	–

SMILES	IC50 (Plasmodium falciparum) [µM]	IC50 (HepG2) [µM]	selectivity ratio [2]	also measured
NC(=O)c1ccc(Nc2nccc(Nc3ccc4cn[nH]c4c3)n2)cc1	5.4	16	3	–
CN1CCN(c2ccc(Nc3nccc(Nc4ccc5nc[nH]c5c4)n3)cc2)CC1	0.66	> 25	> 38	logD at 6 h [3]: 2.3; inhibition at 0.5 h, 1 µM (Aurora kinase A): 20.6%; inhibition at 0.5 h, 1 µM [4]: 41.6%; inhibition at 0.5 h, 1 µM [5]: 7.9%; CLH [6]: 0.8 mL/min/g; solubility [7]: 124 µM (≈ 49.7 µg/mL); inhibition at 0.5 h, 1 µM [8]: 69.2%; inhibition at 0.5 h, 1 µM [9]: 75.9%; Papp at 5 h, 10 µM [10]: 0.02 ×10⁻⁶ cm/s; inhibition at 0.5 h, 1 µM [11]: 89.3%; inhibition at 0.5 h, 1 µM [12]: 85%; inhibition at 0.5 h, 1 µM [13]: 47.9%; inhibition at 0.5 h, 1 µM [14]: 91.3%
NS(=O)(=O)c1ccc(Nc2nccc(Nc3ccc4nc[nH]c4c3)n2)cc1	8.2	> 25	> 3	–
Cc1cccc(Nc2nccc(Nc3ccc4cn[nH]c4c3)n2)c1	3.6	15	4.2	–
CN1CCN(c2ccc(Nc3nccc(Nc4ccc5cn[nH]c5c4)n3)cc2)CC1	0.6	7	12	–
Cc1cccc(Nc2nccc(Nc3ccc4nc[nH]c4c3)n2)c1	0.98	20	20	–
NS(=O)(=O)c1ccc(Nc2ncc(Cl)c(Nc3ccc4nc[nH]c4c3)n2)cc1	2.5	7.8	3.1	–
O=C(O)c1ccc(Nc2nccc(Nc3ccc4nc[nH]c4c3)n2)cc1	8.2	> 25	> 3	–
Brc1ccc(Nc2nccc(Nc3ccc4cn[nH]c4c3)n2)cc1	1.6	20	13	–
Brc1cccc(Nc2nccc(Nc3ccc4cn[nH]c4c3)n2)c1	2.6	17	6.5	–
NS(=O)(=O)c1ccc(Nc2nccc(Nc3ccc4cn[nH]c4c3)n2)cc1	19	22	1.2	–
Cc1ccc(Nc2nccc(Nc3ccc4nc[nH]c4c3)n2)cc1	1.4	> 25	> 18	–
CN1CCN(c2ccc(Nc3ncc(C#N)c(Nc4ccccc4C(N)=O)n3)cc2)CC1	0.04	–	–	cytotoxicity [1]: 43%
O[C@@H](c1cc(C(F)(F)F)nc2c(C(F)(F)F)cccc12)[C@H]1CCCCN1 [(S,R)-MEFLOQUINE]	0.014	–	–	–
C[C@H]1[C@@H](O)O[C@@H]2O[C@@]3(C)CC[C@H]4[C@H](C)CC[C@@H]1[C@@]24OO3 [ARTENIMOL]	0.031	–	–	–
CCc1nc(N)nc(N)c1-c1ccc(Cl)cc1 [PYRIMETHAMINE]	0.004	–	–	–
